In patent US6432403B1, “Antibodies to polypeptides having prenylcysteine carboxyl methlytransferase activity or inhibiting activity” (New York University, priority 1997, dated 2002):

Target: T1, human pcCMT (Homo sapiens, UniProt O60725)
T1 construct: The 3.6-kb full-length HL60 pcCMT cDNA and an 852-bp cDNA fragment comprising the ORF were subcloned into the eukaryotic expression vectors; expressed in transfected cells; host or cells: COS-1 cells (pCDM8 vector, DEAE-dextran transfection); light membranes after nitrogen cavitation
T1 sequence (O60725 whole entry, the tested form may be a part): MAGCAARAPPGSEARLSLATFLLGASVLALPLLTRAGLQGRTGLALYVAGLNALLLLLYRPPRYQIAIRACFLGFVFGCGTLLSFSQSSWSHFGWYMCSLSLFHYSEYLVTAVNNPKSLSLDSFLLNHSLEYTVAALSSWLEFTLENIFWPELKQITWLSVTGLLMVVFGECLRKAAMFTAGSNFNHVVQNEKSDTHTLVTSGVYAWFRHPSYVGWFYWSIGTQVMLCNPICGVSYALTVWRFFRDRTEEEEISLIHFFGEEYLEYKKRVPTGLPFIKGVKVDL
Assay: Carboxyl methylation of prenylcysteine analogs (AFC, AGGC) as defined substrates by the recombinant enzyme in COS-1 membranes
Format: biochemical
Experimental: Prenylcysteine Carboxyl Methyltransferase Assays: COS-1 cells transfected with HL60 pcCMT or vector alone were harvested at 48 hours with 5 mM EDTA and subjected, in parallel with human neutrophils, to nitrogen cavitation and discontinuous sucrose density centrifugation as described (Philips et al, 1991). Light membranes were assayed for pcCMT activity qualitatively by S-adenosyl-L- [methyl-^3H]methionine labeling (SDS-polyacrylamide gel electrophoresis and flurography) of Rho GTPases partially purified from neutrophil cytosol and quantitatively by carboxyl methylation of N-acetyl-S-trans,trans-farnesyl-L-cysteine (AFC) (heptane partition, alkaline hydrolysis, and measurement of vapor phase [^3H]methanol) as described (Philips et al, 1995)
To determine whether the HL60 STE14 protein homolog has prenylcysteine carboxyl methyltransferase activity, the cDNA was subcloned into a mammalian expression vector PCDM8 (Invitrogen, San Diego, Calif.) and transiently overexpressed ectopically in COS-1 cells. Membranes prepared from these cells were used as a source of recombinant enzyme. Farnesylated Ras GTPases require detergent for extraction from membranes. Therefore, geranylgeranylated neutrophil cytosolic Rho accessory protein, guanine nucleotide dissociation inhibitor (GDI), were utilized as endogenous substrates in an in vitro assay (FIGS. 5A and 5B). Untransfected COS-1 cell membranes had little pcCMT activity toward Rho proteins compared with that of membranes derived from human neutrophils (FIG. 5A). Transfection with the HL60 cDNA conferred pcCMT activity toward Rho GTPases on COS-1 membranes, and this activity was blocked by the competitive pcCMT inhibitor, AFC, with an ED50 (10 μM) identical to that for endogenous neutrophil pcCMT. Carboxyl methylation of Rac2 and RhoA by HL60 pcCMT-transfected COS-1 cell membranes was enhanced by guanosine 5′-3-O-(thio)triphosphate (GTPγS) (FIG. 5B), similar to the activity observed in neutrophil membranes (Philips et al, 1993). Carboxyl methyltransferase activity was quantitated in membranes of COS-1 cells transfected with HL60 pcCMT using prenylcysteine analogs as defined substrates (Philips et al, 1995). Untransfected COS-1 cell membranes had […] (n=5) of the pcCMT specific activity of neutrophil membranes toward AFC.
The Michaelis constants of the recombinant enzyme, Km=7 μM for AFC and 0.6 μM for AGGC, were similar to those for the endogenous neutrophil enzyme (Pillinger et al, 1994). Thus, the cDNA described above encodes authentic human myeloid pcCMT.

Increase in carboxyl methylation of the substrate on pcCMT transfection (n=2): 20 fold
Km (recombinant enzyme, read-out: Michaelis constant Km): 7 µM
SMILES: CC(=O)N[C@@H](CSC/C=C(\C)CC/C=C(\C)CCC=C(C)C)C(=O)O [AFC, N-acetyl-S-trans,trans-farnesyl-L-cysteine]
